In EP1268487B1, “TRICYCLIC PROTEIN KINASE INHIBITORS” (Wyeth, priority 2000, dated 2001):

Legend:
[1] = molecular target: T1, Epidermal Growth Factor Receptor Kinase (EGF-R) (Homo sapiens, UniProt P00533); assay: Inhibition of Epidermal Growth Factor Receptor Kinase (EGF-R) using recombinant enzyme; format: biochemical
T1 construct: containing the EGFR cDNA encoding amino acids 645 - 1186 preceded by Met-Ala-(His)6; Met-Ala-(His)6 (N); made in house; host or cells: Sf9 insect cells (baculovirus vHcEGFR52)
T1 sequence (P00533 669-1210): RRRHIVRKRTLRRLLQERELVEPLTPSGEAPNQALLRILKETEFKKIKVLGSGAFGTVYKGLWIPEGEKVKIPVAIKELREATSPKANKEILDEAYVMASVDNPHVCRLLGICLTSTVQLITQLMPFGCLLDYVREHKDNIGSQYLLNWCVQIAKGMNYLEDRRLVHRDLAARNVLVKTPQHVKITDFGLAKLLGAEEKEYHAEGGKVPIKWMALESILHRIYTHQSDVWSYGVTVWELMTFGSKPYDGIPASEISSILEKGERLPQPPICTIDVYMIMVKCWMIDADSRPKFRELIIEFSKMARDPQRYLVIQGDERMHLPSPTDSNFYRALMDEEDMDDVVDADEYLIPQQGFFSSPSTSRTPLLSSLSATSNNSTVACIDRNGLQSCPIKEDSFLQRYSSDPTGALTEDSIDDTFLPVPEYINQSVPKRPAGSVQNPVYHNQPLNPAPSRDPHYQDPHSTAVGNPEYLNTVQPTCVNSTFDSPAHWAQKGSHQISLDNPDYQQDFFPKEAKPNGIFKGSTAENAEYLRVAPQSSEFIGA
Protocol: Representative test compounds were evaluated for their ability to inhibit the phosphorylation of the tyrosine residue of a peptide substrate catalyzed by the enzyme epidermal growth factor receptor kinase. The peptide substrate (RR-SRC) has the sequence arg-arg-leu-ile-glu-asp-ala-glu-tyr-ala-ala-arg-gly. The enzyme used in this assay is the His-tagged cytoplasmic domain of EGFR. A recombinant baculovirus (vHcEGFR52) was constructed containing the EGFR cDNA encoding amino acids 645 - 1186 preceded by Met-Ala-(His)6. Sf9 cells in 100 mm plates were infected at an moi of 10 pfu/cell and cells were harvested 48 hours post infection. A cytoplasmic extract was prepared using 1% Triton X-100 and applied to Ni-NTA column. After washing the column with 20 mM imidazole, HcEGFR was eluted with 250 mM imidazole (in 50 mM Na2HPO4, pH 8.0, 300 mM NaCl). Fractions collected were dialyzed against 10 mM HEPES, pH 7.0, 50 mM NaCl, 10% glycerol, 1µg/mL antipain and leupeptin and 0.1 mM Pefabloc SC. The protein was frozen in dry ice/methanol and stored -70° C.
Test compounds were made into 10 mg/mL stock solutions in 100% dimethylsulfoxide (DMSO). Prior to experiment, stock solutions were diluted to 500 µM with 100% DMSO and then serially diluted to the desired concentration with HEPES buffer (30 mM HEPES pH 7.4).
For the enzyme reaction, 10 µL of each inhibitor (at various concentrations) were added to each well of a 96-well plate. To this was added 3 µL of enzyme (1:10 dilution in 10mM HEPES, pH 7.4 for final conc. of 1:120). This was allowed to sit for 10 minutes on ice and was followed by the addition of 5 µl peptide (80 uM final conc.), 10µl of 4X Buffer (Table A), 0.25 µL ^33P-ATP and 12 µL H2O. The reaction was allowed to run for 90 minutes at room temperature and was followed by spotting the entire volume on to precut P81 filter papers. The filter discs were washed 2X with 0.5% phosphoric acid and radioactivity was measured using a liquid scintillation counter. Table A
The inhibition data for representative compounds of the invention are shown below in TABLE 1. The IC50 is the concentration of test compound needed to reduce the total amount of phosphorylated substrate by 50%. The % inhibition of the test compound was determined for at least three different concentrations and the IC50 value was evaluated from the dose response curve. […] CPM(control) is in units of counts per minute and was a number expressing the amount of radiolabeled ATP (γ-^33P) incorporated into the RR-SRC peptide substrate by the enzyme after 90 minutes at room temperature in the absence of test compound as measured by liquid scintillation counting. The CPM values were corrected for the background counts produced by ATP in the absence of the enzymatic reaction. Where it was possible to determine an IC50 value, this is reported in TABLE 1 otherwise the % inhibition at 0.5 µM concentration of test compound is shown in TABLE 1.

[2] = molecular target: T2, c-Met (Homo sapiens, UniProt P08581); assay: DELFIA assay for c-Met receptor kinase inhibitors; format: biochemical
T2 construct: The cytoplasmic domain of c-Met was generated by reverse transcriptase-polymerase chain reaction; His tag (from pFastBac-HTc vector; purified on Ni-NTA/Talon); made in house; host or cells: Sf9 insect cells (baculovirus)
T2 sequence (P08581 956-1390 limits assumed): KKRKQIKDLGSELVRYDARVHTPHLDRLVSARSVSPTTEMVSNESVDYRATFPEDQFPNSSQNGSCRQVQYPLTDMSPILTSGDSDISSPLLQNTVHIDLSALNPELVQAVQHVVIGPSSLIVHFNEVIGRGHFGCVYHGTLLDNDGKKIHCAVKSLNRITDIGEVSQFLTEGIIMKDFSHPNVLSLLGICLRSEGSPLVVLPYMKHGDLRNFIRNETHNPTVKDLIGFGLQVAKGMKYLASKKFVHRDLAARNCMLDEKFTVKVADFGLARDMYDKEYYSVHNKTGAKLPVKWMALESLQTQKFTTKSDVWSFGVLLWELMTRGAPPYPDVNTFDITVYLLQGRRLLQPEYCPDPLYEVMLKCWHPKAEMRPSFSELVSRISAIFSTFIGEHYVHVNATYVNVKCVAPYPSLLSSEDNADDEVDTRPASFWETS
Protocol: The c-Met kinase assay was performed as a DELFIA (dissociation enchanced lanthanide fluorometric immunoassay), an ELISA-like protocol based upon time-resolved fluorometry as described previously [Braunwalder, A. F., Yarwood, D.R., Sills, M.A., and Lipson, K.E., Anal. Biochem. 238, 159-164 (1996)]. The protocol was adopted for the screening of inhibitors of the kinase activity of recombinant c-Met. [Loganzo, F., and. Hardy, C., American Biotechnology Laboratory 16(13), 26-28 (1998)]. The cytoplasmic domain of c-Met was generated by reverse transcriptase-polymerase chain reaction using RNA isolated from human mammary epithelial cells as template, cloned into the pFastBac-HTc vector (Life Technologies) and protein expressed in Sf9 insect cells by baculovirus infection. Protein was purified by imidazole elution from Ni-NTA resin (Invitrogen, Carlsbad, CA) or Talon resin (Clontech, Palo Alto, CA). Various conditions were evaluated for the kinase screening protocol and screening was accomplished with the following method. Polystyrene Maxisorp plates (Nunc) were pre-coated for 1 hour to overnight at room temperature with 5 µg/ml poly(Glu4-Tyr) diluted in Tris-buffered saline (TBS). Plates were washed 3X with TBS. c-Met protein preparation was diluted 1:80 into 0.1% BSA/ 4 mM HEPES. A master mix was prepared consisting of: 1 volume of diluted c-Met, 1 volume of 5X buffer (20 mM HEPES, pH 7.4; 2 mM MnCl2; 100 µM Na3VO4; 1 mM DTT), 0.9 volume of water. Master mix (29 µl) was added to the wells of peptide-coated microtiter plates. For assays where c-Met autophosphorylation was evaluated, plates were uncoated and c-Met was diluted into 4 mM HEPES at 1:40 without BSA. Compounds (1 µl) at various dilutions (1 mM to 0.1 µM) prepared in DMSO were added and mixed well with an automatic piptettor. After incubation 20 minutes at room temperature, the reaction was initiated with 20 µl of 62.5 µM ATP/ 50 mM MgCl2 (final 25 µM ATP/ 20 mM MgCl2 in assay). Reactions were incubated 45 minutes at room temperature. Plates were then washed 3X with 100 µl each of DELFIA wash buffer (Wallac). Antibody binding was performed by adding 75 µl of Europium-conjugated anti-phosphotyrosine diluted 1:2000 in Assay Buffer (Wallac) for 1 hour at room temperature. Plates were washed 3X with DELFIA wash buffer. Detection was done by addition of 100 µl of Enhancement Solution (Wallac). After 30 minutes, plates were read in a Wallac VICTOR-2 time-resolved fluorometer. Inhibition data was reported as europium counts for compound treated wells normalized to control counts. IC50 values were obtained by using log doses of compound and calculated using Data Analysis Toolbox software, version 1.0.2 (MDL Information Systems, Inc.).

inhibition at 0.5 µM ([1]; 0.5 µM concentration of test compound): 35.5%
IC50 ([1]; recombinant enzyme): 1000 nM
inhibition at 10 µg/mL [2]: 80%
Structure (SMILES): N#Cc1cnc2cc3c(cc2c1Nc1ccc(F)c(Cl)c1)NCCO3 [Example 7, 9-(3-Chloro-4-fluoroanilino)-2,3-dihydro-1H-[1,4]oxazino[3,2-g]quinoline-8-carbonitrile]
